Reference: US6043228A, “O^6 -substituted guanine derivatives, a process for their preparation and their use in treating tumor cells” (Cancer Research Campaign Technology Limited, priority 1993, dated 2000)

Tests used:
ATase = assay: Inactivation of ATase in mammalian cells, summary over human, rat and Chinese hamster cell lines; format: cell-based; details: Table 5
Method: Mammalian cells were cultured under standard conditions. For example, Raji (a human lymphoblastoid cell line from a Burkitt's lymphoma) cells were grown in suspension culture in RPMI medium supplemented with 10% horse serum. […]
Cells were diluted to 10^6 /ml in culture medium containing either the appropriate concentration of inactivator or an equivalent volume of vehicle (DMSO). […] ATase activity was determined as described above, in duplicate sonicated cell extracts and expressed as the, percentage activity remaining based on that present in the untreated controls (for example 350-450 fm/mg in Raji cells).

recombinant human ATase = biological target: T1, recombinant human ATase (Homo sapiens, UniProt P16455); assay: In vitro ATase inactivation assay (incubation with inactivators and ATase assay); format: biochemical; details: recombinant human ATase, standard conditions
T1 construct: made in house
T1 sequence (P16455 1-207): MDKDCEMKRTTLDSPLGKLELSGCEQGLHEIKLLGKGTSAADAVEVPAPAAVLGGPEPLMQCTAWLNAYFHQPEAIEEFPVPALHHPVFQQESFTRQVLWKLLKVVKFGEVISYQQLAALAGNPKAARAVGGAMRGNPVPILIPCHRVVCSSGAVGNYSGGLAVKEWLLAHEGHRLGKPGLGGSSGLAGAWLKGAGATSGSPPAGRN
Method: The cDNA cloning and overexpression of the human ATase has been reported previously^23. Purification of the recombinant proteins was achieved either by affinity chromatography through a DNA-cellulose column as described by Wilkinson et al.,^25, 26 or by DEAE-cellulose ion-exchange chromatography. For the latter, the ATase protein was partially purified by ammonium sulphate precipitation (30-60%) and dialysed against 10 mM Tris-HCl pH 7.5, 1 mM DTT, 2 mM EDTA, 10% glycerol, before loading on a DEAE-cellulose column. The ATase was then eluted with a 0-0.1 M NaCl gradient.
Compounds to be tested were dissolved in DMSO to a final concentration of 10 mM and diluted just before use in buffer I containing 1 mg/ml bovine serum albumin (IBSA). Recombinant ATase was diluted in IBSA and titrated in order that the reaction be conducted under ATase, and not substrate, limiting conditions. […] Following acid hydrolysis of the DNA as previously described^21 the [^3 H]-methylated protein was recovered and quantitated by liquid scintillation counting. Samples were typically assayed in duplicate and experiments repeated several times. I50 is the concentration of inactivator required to produce a 50% reduction in ATase activity.

[1] = Sensitivity of mammalian cells to the inactivators alone: XP cells; format: cell-based, human; details: human, xp cells; FIG. 6; read-out: dose required for growth inhibition relative to that required for ATase inactivation
Method: (§1) In order to assess the effects on cell growth alone, Xeroderma pigmentosum cells and Chinese Hamster V79 cells were exposed to increasing concentrations (up to 600 μM) of selected inactivators for 2 h at 37°. In some cases, the inactivators were allowed to undergo hydrolysis at 37° C. for 20 hours and then added to Raji cells in order to assess the extent to which the decomposition products of the agents might inhibit cell growth. After 6 days the extent of cell growth was determined as described above.

[2] = tested on: Xeroderma pigmentosum cells; assay: as above; format: cell-based, human; details: inactivator alone (FIG. 6)
Method: as §1

[3] = Sensitivity of mammalian cells to the inactivators alone: V79 cells; format: cell-based, Chinese hamster; details: hamster, v79 cells; FIG. 5; read-out: growth inhibitory dose in V79 cells relative to I50 dose
Method: as §1

[4] = tested on: Chinese Hamster V79 cells; assay: as above; format: cell-based
Method: as §1

SMILES: Nc1nc(OCc2ccco2)c2nc[nH]c2n1 [B.4203, 0^6 -furfurylguanine]
- effectiveness relative to BeG in the cell lines used (ATase): up to 7 times
- ATase inactivation in vitro, result in words (recombinant human ATase): not as effective as BeG
- selectivity ratio [1]: ≥ 100
- growth inhibition / toxicity to XP cells, in words [2]: toxic
- selectivity ratio [3]: ≥ 100
- toxic concentration in V79 cells relative to concentration sensitizing to BCNU ([4]; FIGS. 5 & 6): at least 100 times
- dose producing some growth inhibition of V79 cells ([4]; inactivator alone, 2 h (FIG. 5)): > 100 µM
- growth inhibition / toxicity to V79 cells, in words ([4]; inactivator alone, up to 600 μM): toxic
